The source made the active and inactive calls.
Tests used:
Bcl-2-related protein A1 [1] = target: T1, Bcl-2-related protein A1 (Mus musculus, UniProt Q07440); assay: Bfl-1 binding inhibitors, SAR follow-up, biochemical, fluorescence polarization (AID 1070)
T1 sequence (Q07440 whole entry): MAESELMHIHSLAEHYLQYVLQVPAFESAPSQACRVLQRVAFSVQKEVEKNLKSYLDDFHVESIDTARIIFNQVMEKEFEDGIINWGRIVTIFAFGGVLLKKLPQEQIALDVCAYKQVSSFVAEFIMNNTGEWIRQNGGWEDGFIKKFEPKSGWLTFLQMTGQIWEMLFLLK

Bcl-2-related protein A1 [2] = target: T1, Bcl-2-related protein A1; assay: small-molecule antagonists of Bfl-1/BH3 interaction – biochemical, TR-FRET, mouse Bfl-1, confirmation (AID 621);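 also: TR-FRET binding of GST-Bfl-1 to FITC-labelled Bid peptide via terbium antibody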
[3] = target: Glyceraldehyde-3-phosphate dehydrogenase (Homo sapiens, UniProt P04406)
[4] = Luminescent dose response cell-based high throughput screening assay for inhibitors of the Janus kinase 2 mutant JAK2V617F. [Related pubchem assays: 1446 (Primary screen.), 1521 (Confirmation assay.), 1486 (Counter screen.)]; type: functional
[5] = target: Ubiquitin carboxyl-terminal hydrolase BAP1 (Homo sapiens, UniProt Q92560); assay: inhibition of BAP1 ubiquitin hydrolase activity – biochemical, dose response (AID 714); type: functional
Cytochrome P450 2C19 [6] = target: T2, Cytochrome P450 2C19 (Homo sapiens, UniProt P33261); assay: qHTS Assay for Inhibitors and Substrates of Cytochrome P450 2C19. [Related pubchem assays: 410 ]; type: ADME; conditions: read-out: Potency
Cytochrome P450 2C19 [7] = target: T2, Cytochrome P450 2C19; assay: Cytochrome panel assay with activity outcomes. Panel member name: p450-cyp2c19 Compounds with AC50 equal or less than 10 uM are considered active; type: functional
[8] = target: T3, Heat shock factor protein 1 (Mus musculus, UniProt P38532); assay: decrease of HSF1-responsive luciferase luminescence – cell-based, NIH3T3, dose retest, confirmation (AID 2382); type: functional;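 also: NIH3T3 fibroblasts with HSF1-driven luciferase reporter stressed by proteasome inhibitor MG132; luminescence from HSF1-driven luciferase expression after 8 hours of MG132 stress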
T3 sequence (P38532 whole entry): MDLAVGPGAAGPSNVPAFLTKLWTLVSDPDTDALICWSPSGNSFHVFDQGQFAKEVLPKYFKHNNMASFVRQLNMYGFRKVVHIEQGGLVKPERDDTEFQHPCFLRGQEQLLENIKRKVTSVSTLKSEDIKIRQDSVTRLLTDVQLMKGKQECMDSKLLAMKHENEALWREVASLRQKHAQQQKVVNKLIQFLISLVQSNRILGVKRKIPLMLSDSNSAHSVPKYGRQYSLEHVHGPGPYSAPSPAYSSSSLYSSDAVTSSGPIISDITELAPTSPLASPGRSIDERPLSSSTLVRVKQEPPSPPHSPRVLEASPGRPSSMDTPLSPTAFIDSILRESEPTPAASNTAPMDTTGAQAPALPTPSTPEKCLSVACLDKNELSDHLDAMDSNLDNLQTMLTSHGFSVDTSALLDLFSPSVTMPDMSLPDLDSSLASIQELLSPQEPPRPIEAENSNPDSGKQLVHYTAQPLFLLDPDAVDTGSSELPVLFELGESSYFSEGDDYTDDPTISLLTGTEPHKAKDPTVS

Estrogen receptor beta [9] = target: T4, Estrogen receptor beta (Homo sapiens, UniProt Q92731); assay: blockers of SRC-3 recruitment to ERβ – biochemical, ELISA, streptavidin-HRP readout, orthogonal assay, confirmation (AID 1060)
Estrogen receptor beta [10] = target: T4, Estrogen receptor beta
H4 = assay: Luminescence Cell-Based Dose Response HTS to Identify Activators of 5'UTR Stem-Loop Driven Prion Protein mRNA Translation in H4 Neuroglioblastoma Cells. [Related pubchem assays: 1829 (Project Summary), 1814 (Primary HTS)]; type: functional; conditions: Homo sapiens
A-375 [11] = assay: MITF: Counter assay: A375 proliferation Measured in Cell-Based System Using Plate Reader - 2084-03_Inhibitor_Dose_DryPowder_Activity. [Related pubchem assays (depositor defined):AID488944]; type: functional; conditions: Homo sapiens
A-375 [12] = assay: proliferation inhibition in MITF-low A375 cells – cell-based, cherry-pick samples, set 2, counter-screen for MITF modulator project, dose response (AID 540335); type: functional; conditions: Homo sapiens
[13] = Luminescence Cell-Based Dose Response to Identify Activators of 5'UTR Stem-Loop Driven Prion Protein mRNA Translation in H4-C Neuroglioblastoma Cells. [Related pubchem assays: 1829 (Project Summary), 1814 (Primary HTS)]; type: functional
[14] = Luminescence Cell-Based Dose Response HTS to Identify Activators of Luciferase Translation or Activity in H4 […] Cells. [Related pubchem assays: 1829 (Project Summary), 1814 (Primary HTS)]; type: functional
[15] = Luminescence Cell-Based Dose Response to Identify Activators of Luciferase Translation or Activity in H4-C Neuroglioblastoma Cells. [Related pubchem assays: 1829 (Project Summary), 1814 (Primary HTS)]; type: functional
[16] = Luminescence Cell-Based Dose Confirmation to Identify Activators of 5'UTR Stem-Loop Driven Alpha-Synuclein mRNA Translation in H4 Neuroglioblastoma Cells. [Related pubchem assays: 1829 (Project Summary), 1814 (Primary HTS)]; type: functional
HeLa = assay: ATP-based viability loss in HeLa cells – cell-based, CellTiter-Glo luminescence, cherry-pick samples, cytotoxicity control for MITF activator project, dose response (AID 540259); type: functional; conditions: Homo sapiens
[17] = blockers of HIV-1 envelope-mediated cell-cell fusion – cherry-pick, dose response (AID 652057); type: functional, cell-based
[18] = HIV-1 AD8 envelope cell-cell fusion blockers – cherry-pick, dose response (AID 652062); type: functional, cell-based;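 also: luciferase signal from cell-cell fusion driven by HIV-1 clade B AD8 Env; potency is for inhibitors of fusion seen as a drop in luminescence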
[19] = off-target signal loss in HeLa-CEM21 co-culture – HeLa F-luc CTL cells, cherry-picked, counter-screen for HIV-1 Env fusion inhibitor project, dose response (AID 652040); type: functional, cell-based;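 also: potency for signal decrease marking cytotoxic or nonspecific inhibition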
[20] = blockers of HIV-1 ZM109 envelope-driven cell-cell fusion – HeLa effector, CEM target cells, luciferase, cherry-pick, dose response (AID 652058); type: functional, cell-based;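 also: luciferase signal from HIV-1 Env mediated cell-cell fusion of effector and target cells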
[21] = target: T3, Heat shock factor protein 1; assay: enhancement of HSF1-driven luciferase signal – cell-based, NIH3T3, luminescence, dose retest, confirmation (AID 435004); type: functional;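 also: stress induced by proteasome inhibitor MG132 added 30 min after compound; luciferase reporter driven by HSF1 response element in NIH3T3 cells; actives raise luminescence as potentiators of the MG132 stress response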
[22] = viability loss in CEM21 cells – cell-based, CellTiter-Glo luminescence, cherry-picked, cytotoxicity control for viral fusion inhibitor project, dose response (AID 652042); type: functional;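 also: potency for signal decrease meaning cytotoxicity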

T4 sequence (Q92731 whole entry): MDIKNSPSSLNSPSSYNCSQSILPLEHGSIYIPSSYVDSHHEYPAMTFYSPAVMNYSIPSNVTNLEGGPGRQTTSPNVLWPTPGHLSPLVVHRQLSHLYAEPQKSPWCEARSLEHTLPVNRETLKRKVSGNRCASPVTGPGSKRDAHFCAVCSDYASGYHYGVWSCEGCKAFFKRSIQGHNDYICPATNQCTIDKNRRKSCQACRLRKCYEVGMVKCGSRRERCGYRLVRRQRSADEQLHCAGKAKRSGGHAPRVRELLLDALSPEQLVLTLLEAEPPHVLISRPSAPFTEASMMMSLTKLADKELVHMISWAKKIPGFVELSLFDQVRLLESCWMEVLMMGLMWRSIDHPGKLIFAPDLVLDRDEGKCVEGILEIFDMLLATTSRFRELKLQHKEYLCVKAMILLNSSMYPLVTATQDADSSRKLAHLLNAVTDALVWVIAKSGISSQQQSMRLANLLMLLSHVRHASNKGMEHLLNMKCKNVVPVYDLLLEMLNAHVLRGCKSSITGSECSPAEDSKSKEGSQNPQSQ
T2 sequence (P33261 whole entry): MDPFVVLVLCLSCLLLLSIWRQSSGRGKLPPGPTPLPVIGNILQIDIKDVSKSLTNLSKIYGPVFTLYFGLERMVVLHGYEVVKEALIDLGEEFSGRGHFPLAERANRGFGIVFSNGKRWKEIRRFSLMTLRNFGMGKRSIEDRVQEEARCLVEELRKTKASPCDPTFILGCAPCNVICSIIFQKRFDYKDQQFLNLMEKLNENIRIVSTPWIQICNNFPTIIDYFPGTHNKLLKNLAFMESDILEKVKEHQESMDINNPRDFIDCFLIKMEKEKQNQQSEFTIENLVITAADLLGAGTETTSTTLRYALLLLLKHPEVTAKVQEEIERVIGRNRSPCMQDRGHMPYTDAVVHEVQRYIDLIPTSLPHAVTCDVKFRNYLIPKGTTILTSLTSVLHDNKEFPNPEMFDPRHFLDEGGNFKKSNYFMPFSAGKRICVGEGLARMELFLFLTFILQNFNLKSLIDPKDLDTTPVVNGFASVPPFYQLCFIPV
Glyceraldehyde-3-phosphate dehydrogenase, sequence (P04406 whole entry): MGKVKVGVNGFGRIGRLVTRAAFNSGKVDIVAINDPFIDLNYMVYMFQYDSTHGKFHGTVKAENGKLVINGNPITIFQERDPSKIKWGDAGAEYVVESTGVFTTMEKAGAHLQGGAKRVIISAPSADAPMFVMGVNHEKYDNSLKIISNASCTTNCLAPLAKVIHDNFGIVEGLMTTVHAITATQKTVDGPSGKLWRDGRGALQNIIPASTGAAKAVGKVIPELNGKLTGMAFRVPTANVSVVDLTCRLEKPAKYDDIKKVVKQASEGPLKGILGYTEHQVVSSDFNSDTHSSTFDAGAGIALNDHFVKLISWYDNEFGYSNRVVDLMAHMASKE
Ubiquitin carboxyl-terminal hydrolase BAP1, sequence (Q92560 whole entry): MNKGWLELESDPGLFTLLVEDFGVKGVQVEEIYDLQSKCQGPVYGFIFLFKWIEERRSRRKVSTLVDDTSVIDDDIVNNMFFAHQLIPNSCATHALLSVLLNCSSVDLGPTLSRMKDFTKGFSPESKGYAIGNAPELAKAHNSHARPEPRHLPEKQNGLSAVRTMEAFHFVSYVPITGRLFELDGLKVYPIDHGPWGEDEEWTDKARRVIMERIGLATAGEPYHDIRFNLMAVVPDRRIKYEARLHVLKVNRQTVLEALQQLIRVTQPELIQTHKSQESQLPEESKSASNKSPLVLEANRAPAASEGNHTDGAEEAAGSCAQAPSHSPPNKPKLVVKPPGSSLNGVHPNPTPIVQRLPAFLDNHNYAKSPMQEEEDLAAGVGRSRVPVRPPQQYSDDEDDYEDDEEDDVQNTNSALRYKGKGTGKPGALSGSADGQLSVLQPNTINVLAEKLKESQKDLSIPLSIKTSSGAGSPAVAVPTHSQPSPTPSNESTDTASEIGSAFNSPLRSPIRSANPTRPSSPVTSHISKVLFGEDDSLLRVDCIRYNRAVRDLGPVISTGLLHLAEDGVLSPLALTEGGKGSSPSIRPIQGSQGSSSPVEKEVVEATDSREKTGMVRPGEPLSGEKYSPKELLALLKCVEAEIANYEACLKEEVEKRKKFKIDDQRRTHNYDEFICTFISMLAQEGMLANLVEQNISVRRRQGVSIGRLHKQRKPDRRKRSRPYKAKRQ

SMILES: O=C1C(Cl)=C(N2CCOCC2)C(=O)N1c1ccc(Cl)c(Cl)c1
- IC50 (Bcl-2-related protein A1 [1]): 1.51 µM (active)
- IC50 (Bcl-2-related protein A1 [2]): 1.29 µM (active)
- IC50 [3]: > 100 µM (not active)

SMILES: CC(C)(C)/C(O)=C/c1nc2cc(Cl)ccc2oc1=O
- IC50 [4]: 1.7 µM (active)

SMILES: COc1ccccc1N1CCN(C2=C(Cl)C(=O)N(c3ccc(Cl)c(Cl)c3)C2=O)CC1
- IC50 (Bcl-2-related protein A1 [1]): 9.57 µM (active)
- IC50 (Bcl-2-related protein A1 [2]): 6.25 µM (active)
- IC50 [3]: > 100 µM (not active)

SMILES: O=C(NCc1ccccc1)c1cnc2ccc(S(=O)(=O)Nc3ccc4c(c3)OCCO4)cc2c1O
- IC50 [5]: > 50 µM (not active)

SMILES: CCCCCCC(=O)Cc1cc(OC)c(OC)cc1C=C(C(=O)OCC)C(=O)OCC
- AC50 (Cytochrome P450 2C19 [6]): 3.16 µM (inconclusive)

SMILES: CC1=CC(C)(C)Nc2cc(C)c(C)cc21
- IC50 [5]: > 50 µM (not active)

SMILES: Nc1nc(N)c2nc(-c3ccccc3)c(N)nc2n1
- AC50 (Cytochrome P450 2C19 [7]): inactive
- EC50 [8]: > 195 µM (not active)
- IC50 [4]: 0.807 µM (active)

SMILES: N#Cc1ccsc1NC(=O)CSc1ncnc2ccccc12
- IC50 (Estrogen receptor beta [9]): < 0.023 µM (not active)
- IC50 (Estrogen receptor beta [10]): > 50 µM (not active)

SMILES: COc1cc([C@@H]2Oc3cc([C@H]4Oc5cc(O)cc(O)c5C(=O)[C@H]4O)ccc3O[C@H]2CO)ccc1O
- AC50 (Cytochrome P450 2C19 [6]): 15.8 µM (inconclusive)

SMILES: COc1ccc(/C=N/N=C2/SCC(=O)N2Cc2ccccc2)cc1
- EC50 (H4): > 120 µM (not active)
- AC50 (A-375 [11]): > 35 µM (active)
- AC50 (A-375 [12]): > 35 µM (active)
- EC50 [13]: 0.361 µM (active)
- EC50 [14]: < 0.1 µM (active)
- EC50 [15]: 0.335 µM (active)
- EC50 [16]: 0.581 µM (active)
- AC50 (HeLa): 164 µM (active)

SMILES: O=C(Oc1ccc2c(c1)OCO2)c1cc2c(s1)CCC2
- AC50 [17]: 10.4 µM (active)
- IC50 (Estrogen receptor beta [9]): < 0.023 µM (not active)
- AC50 [18]: 7.2 µM (active)
- AC50 [19]: 10.8 µM (active)
- AC50 [20]: 3.31 µM (active)
- EC50 [21]: > 260 µM (inactive)
- IC50 (Estrogen receptor beta [10]): < 1.56 µM (active)
- AC50 [22]: 2.01 µM (active)
